From patent US9156845B2, “4-(substituted amino)-7H-pyrrolo[2,3-d] pyrimidines as LRRK2 inhibitors” (Pfizer Inc., priority 2012, dated 2015)
Read-outs that look alike come from different tables or passages of the source.

Experiments:
Assay in all cases: ActivX kinase probe assay (human PBMC)
Assay type in all cases: binding
[1] = test system: AKT2, AKT3
[2] = target: AMPKa1 (Homo sapiens (Human), UniProt Q13131); settings: read-out: percent inhibition
[3] = test system: AMPKa1, AMPKa2
[4] = target: CaMK1d (Homo sapiens (Human), UniProt Q8IU85); settings: read-out: percent inhibition
[5] = target: FER (Homo sapiens (Human), UniProt P16591); settings: read-out: percent inhibition
[6] = target: GPRK6 (Homo sapiens (Human), UniProt P43250); settings: read-out: percent inhibition
[7] = target: GSK3A (Homo sapiens (Human), UniProt P49840); settings: read-out: percent inhibition
[8] = target: GSK3B (Homo sapiens (Human), UniProt P49841); settings: read-out: percent inhibition
Sequence of GSK3B (P49841 whole entry): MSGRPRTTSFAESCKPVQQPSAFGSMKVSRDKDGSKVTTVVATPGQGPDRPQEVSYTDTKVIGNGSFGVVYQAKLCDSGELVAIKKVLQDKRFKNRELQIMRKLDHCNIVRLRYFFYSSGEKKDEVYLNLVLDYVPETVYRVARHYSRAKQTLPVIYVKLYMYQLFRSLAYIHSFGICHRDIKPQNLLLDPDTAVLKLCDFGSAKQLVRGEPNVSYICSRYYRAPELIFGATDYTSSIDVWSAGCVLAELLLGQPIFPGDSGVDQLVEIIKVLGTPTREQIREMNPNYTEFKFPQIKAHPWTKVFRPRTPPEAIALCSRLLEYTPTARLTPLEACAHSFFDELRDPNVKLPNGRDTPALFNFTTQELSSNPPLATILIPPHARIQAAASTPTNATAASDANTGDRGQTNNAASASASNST

[9] = target: HPK1 (Homo sapiens (Human), UniProt Q92918); settings: read-out: percent inhibition
[10] = target: JAK1 domain2 (Homo sapiens (Human), UniProt P23458); settings: read-out: percent inhibition
Sequence of JAK1 domain2 (P23458 whole entry, the tested form may be a part): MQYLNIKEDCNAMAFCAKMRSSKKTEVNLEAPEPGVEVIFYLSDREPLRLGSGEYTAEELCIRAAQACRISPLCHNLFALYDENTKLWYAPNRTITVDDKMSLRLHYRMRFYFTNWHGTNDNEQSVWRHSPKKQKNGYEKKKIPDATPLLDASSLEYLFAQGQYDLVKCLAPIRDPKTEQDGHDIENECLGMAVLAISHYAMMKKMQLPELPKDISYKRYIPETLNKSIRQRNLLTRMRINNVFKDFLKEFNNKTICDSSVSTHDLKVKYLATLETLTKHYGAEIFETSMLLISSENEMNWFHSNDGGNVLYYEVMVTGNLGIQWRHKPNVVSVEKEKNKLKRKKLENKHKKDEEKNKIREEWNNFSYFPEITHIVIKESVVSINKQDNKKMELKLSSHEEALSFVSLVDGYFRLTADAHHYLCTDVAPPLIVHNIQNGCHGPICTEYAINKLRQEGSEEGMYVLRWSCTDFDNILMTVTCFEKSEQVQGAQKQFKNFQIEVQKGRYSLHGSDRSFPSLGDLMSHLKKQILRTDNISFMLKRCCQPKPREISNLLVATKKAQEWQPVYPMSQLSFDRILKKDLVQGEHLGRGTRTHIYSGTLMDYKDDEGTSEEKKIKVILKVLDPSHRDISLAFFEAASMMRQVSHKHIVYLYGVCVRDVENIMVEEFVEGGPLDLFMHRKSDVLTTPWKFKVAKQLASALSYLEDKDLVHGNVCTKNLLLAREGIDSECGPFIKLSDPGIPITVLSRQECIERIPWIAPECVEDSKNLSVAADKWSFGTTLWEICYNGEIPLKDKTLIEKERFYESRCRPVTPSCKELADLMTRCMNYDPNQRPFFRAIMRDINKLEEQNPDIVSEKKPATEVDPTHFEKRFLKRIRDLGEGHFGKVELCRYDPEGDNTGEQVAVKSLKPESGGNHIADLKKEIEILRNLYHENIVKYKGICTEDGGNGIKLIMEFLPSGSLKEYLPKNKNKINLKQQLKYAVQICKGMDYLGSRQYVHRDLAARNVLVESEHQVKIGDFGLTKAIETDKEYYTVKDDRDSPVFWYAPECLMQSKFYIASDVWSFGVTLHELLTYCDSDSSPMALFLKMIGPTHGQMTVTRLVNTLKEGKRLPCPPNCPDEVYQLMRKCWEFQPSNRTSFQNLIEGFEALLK

[11] = target: LRRK2 (Homo sapiens (Human), UniProt Q5S007); settings: read-out: percent inhibition
[12] = target: MAP2K1 (Homo sapiens (Human), UniProt Q02750); settings: read-out: percent inhibition
Sequence of MAP2K1 (Q02750 whole entry): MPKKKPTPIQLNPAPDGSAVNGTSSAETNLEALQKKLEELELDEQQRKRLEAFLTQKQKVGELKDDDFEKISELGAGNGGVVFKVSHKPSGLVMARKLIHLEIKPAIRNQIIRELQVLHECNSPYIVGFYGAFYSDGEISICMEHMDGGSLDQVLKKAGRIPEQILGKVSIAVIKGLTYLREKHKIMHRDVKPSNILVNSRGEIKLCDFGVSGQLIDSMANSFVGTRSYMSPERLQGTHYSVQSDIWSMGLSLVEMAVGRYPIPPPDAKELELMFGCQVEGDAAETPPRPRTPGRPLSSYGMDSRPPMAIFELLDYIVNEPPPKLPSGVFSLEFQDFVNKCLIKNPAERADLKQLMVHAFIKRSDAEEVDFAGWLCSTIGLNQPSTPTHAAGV

[13] = target: MAP2K4 (Homo sapiens (Human), UniProt P45985); settings: read-out: percent inhibition
Sequence of MAP2K4 (P45985 whole entry): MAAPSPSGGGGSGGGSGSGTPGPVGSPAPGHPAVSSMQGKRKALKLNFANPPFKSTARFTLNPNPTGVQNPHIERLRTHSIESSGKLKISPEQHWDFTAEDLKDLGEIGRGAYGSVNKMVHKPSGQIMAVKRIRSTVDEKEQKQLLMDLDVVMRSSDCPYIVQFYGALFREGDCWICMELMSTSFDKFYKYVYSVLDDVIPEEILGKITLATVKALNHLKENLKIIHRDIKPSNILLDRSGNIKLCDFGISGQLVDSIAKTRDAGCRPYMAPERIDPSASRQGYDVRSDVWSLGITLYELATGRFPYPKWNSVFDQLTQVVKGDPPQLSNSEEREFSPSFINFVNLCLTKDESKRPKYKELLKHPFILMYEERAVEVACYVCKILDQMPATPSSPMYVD

[14] = target: MAP3K3 (Homo sapiens (Human), UniProt Q99759); settings: read-out: percent inhibition
[15] = target: MAST3 (Homo sapiens (Human), UniProt O60307); settings: read-out: percent inhibition
[16] = target: MLK3 (Homo sapiens (Human), UniProt Q16584); settings: read-out: percent inhibition
Sequence of MLK3 (Q16584 whole entry, the tested form may be a part): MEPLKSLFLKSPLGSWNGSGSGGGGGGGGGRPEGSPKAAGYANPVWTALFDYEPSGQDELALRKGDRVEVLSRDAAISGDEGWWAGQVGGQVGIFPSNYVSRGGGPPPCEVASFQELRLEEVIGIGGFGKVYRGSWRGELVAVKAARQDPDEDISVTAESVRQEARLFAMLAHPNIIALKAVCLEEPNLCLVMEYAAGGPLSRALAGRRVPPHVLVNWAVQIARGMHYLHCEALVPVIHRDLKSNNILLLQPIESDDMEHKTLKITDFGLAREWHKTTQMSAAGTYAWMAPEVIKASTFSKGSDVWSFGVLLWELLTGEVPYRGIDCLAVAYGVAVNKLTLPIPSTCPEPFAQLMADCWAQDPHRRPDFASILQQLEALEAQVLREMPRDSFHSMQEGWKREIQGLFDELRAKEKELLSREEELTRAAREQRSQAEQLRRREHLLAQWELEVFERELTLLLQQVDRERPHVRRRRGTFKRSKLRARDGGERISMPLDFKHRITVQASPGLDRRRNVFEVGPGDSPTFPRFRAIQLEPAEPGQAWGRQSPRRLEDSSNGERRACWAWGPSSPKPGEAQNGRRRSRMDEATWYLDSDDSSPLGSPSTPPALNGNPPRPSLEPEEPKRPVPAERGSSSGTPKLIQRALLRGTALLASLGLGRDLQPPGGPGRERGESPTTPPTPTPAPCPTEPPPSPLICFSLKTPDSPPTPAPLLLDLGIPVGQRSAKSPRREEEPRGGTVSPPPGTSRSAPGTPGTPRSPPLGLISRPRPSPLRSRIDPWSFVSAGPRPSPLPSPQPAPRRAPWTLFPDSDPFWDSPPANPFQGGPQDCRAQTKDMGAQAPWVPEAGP

[17] = target: MSK1 domain1 (Homo sapiens (Human), UniProt O75582); settings: read-out: percent inhibition
Sequence of MSK1 domain1 (O75582 whole entry, the tested form may be a part): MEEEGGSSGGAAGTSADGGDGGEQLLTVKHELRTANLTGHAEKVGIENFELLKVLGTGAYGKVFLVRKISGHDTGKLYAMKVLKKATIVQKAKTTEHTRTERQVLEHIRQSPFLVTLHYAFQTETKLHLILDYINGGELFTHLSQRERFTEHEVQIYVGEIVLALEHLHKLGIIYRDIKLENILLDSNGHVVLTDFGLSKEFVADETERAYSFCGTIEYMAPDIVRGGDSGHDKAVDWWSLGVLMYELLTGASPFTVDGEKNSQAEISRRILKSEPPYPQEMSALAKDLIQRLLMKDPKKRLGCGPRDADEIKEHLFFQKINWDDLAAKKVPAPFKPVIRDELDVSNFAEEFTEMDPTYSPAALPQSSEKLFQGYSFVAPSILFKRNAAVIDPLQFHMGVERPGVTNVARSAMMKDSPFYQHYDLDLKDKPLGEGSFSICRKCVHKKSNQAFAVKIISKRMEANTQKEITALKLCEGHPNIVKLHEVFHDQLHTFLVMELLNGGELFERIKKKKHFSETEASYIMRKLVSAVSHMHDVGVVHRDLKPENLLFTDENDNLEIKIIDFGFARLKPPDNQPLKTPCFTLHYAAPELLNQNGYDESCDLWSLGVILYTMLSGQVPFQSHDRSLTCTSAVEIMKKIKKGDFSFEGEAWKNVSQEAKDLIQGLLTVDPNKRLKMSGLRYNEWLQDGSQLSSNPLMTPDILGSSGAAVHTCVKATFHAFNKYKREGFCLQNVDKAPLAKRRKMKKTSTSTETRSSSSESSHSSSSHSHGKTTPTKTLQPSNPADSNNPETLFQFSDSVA

[18] = target: MST1 (Homo sapiens (Human), UniProt Q13043); settings: read-out: percent inhibition
[19] = test system: MST1, MST2
[20] = target: MST2 (Homo sapiens (Human), UniProt Q13188); settings: read-out: percent inhibition
[21] = test system: MST4, YSK1
[22] = target: NDR1 (Homo sapiens (Human), UniProt Q15208); settings: read-out: percent inhibition
[23] = target: NDR2 (Homo sapiens (Human), UniProt Q9Y2H1); settings: read-out: percent inhibition
Sequence of NDR2 (Q9Y2H1 whole entry): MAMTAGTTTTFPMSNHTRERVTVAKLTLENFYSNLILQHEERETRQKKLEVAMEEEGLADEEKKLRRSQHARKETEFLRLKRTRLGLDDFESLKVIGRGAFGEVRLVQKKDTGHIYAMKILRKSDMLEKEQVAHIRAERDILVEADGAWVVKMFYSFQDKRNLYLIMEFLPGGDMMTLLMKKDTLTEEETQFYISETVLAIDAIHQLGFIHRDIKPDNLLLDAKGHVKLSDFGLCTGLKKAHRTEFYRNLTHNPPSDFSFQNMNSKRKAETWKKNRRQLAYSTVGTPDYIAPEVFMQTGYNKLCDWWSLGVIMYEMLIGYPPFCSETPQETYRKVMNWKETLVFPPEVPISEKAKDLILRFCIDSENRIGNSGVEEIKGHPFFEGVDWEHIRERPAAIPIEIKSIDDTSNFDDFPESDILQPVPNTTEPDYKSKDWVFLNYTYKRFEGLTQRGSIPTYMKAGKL

[24] = test system: NEK6, NEK7
[25] = target: NEK9 (Homo sapiens (Human), UniProt Q8TD19); settings: read-out: percent inhibition
[26] = target: OSR1 (Homo sapiens (Human), UniProt O95747); settings: read-out: percent inhibition
Sequence of OSR1 (O95747 whole entry): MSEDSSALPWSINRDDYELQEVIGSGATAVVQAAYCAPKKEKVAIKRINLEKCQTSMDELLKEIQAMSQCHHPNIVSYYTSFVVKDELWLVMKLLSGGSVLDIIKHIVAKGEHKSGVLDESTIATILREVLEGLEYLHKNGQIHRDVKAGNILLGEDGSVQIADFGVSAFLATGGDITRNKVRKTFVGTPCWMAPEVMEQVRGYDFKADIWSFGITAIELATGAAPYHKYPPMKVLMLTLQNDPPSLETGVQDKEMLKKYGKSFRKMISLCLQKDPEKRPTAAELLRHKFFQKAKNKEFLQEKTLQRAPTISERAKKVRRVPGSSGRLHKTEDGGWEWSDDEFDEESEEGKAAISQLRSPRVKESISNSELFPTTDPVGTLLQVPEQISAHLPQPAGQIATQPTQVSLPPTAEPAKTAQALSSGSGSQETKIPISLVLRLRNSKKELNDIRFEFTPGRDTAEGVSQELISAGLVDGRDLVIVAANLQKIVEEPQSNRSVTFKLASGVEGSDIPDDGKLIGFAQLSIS

[27] = target: p70S6K (Homo sapiens (Human), UniProt P23443); settings: read-out: percent inhibition
[28] = test system: PITSLRE
[29] = target: RIPK3 (Homo sapiens (Human), UniProt Q9Y572); settings: read-out: percent inhibition
[30] = target: RSK1 domain1 (Homo sapiens (Human), UniProt Q15418); settings: read-out: percent inhibition
[31] = target: RSK1 domain2 (Homo sapiens (Human), UniProt Q15418); settings: read-out: percent inhibition

## Cn1cc(-c2c[nH]c3ncnc(N4CCOCC4)c23)cc1C#N [Example 217, 1-methyl-4-[4-(morpholin-4-yl)-7H-pyrrolo[2,3-d]pyrimidin-5-yl]-1H-pyrrole-2-carbonitrile]
[1]; 0.1 μM
  percent inhibition: −9.7%
[1]; 1 μM
  percent inhibition: −3.8%
[2]; AMPKa1, 0.1 μM
  inhibition at 0.1 µM: 27.2%
[2]; AMPKa1, 1 μM
  inhibition at 1 µM: 48.8%
[3]; 0.1 μM
  percent inhibition: 5.7%
[3]; 1 μM
  percent inhibition: 16.5%
[4]; CaMK1d, 0.1 μM
  inhibition at 0.1 µM: 11.7%
[4]; CaMK1d, 1 μM
  inhibition at 1 µM: 3.1%
[5]; FER, 0.1 μM
  inhibition at 0.1 µM: 5.2%
[5]; FER, 1 μM
  inhibition at 1 µM: 16.3%
[6]; GPRK6, 0.1 μM
  inhibition at 0.1 µM: -0.8%
[6]; GPRK6, 1 μM
  inhibition at 1 µM: 3.6%
[7]; GSK3A, 0.1 μM
  inhibition at 0.1 µM: 0.6%
[7]; GSK3A, 1 μM
  inhibition at 1 µM: 8.9%
[8]; GSK3B, 0.1 μM
  inhibition at 0.1 µM: -4.3%
[8]; GSK3B, 1 μM
  inhibition at 1 µM: 12.4%
[9]; HPK1, 0.1 μM
  inhibition at 0.1 µM: -13.7%
[9]; HPK1, 1 μM
  inhibition at 1 µM: 1.7%
[10]; JAK1 domain2, 0.1 μM
  inhibition at 0.1 µM: 7.4%
[10]; JAK1 domain2, 1 μM
  inhibition at 1 µM: 10.1%
[11]
  inhibition at 0.1 µM: 88.4%
[12]; MAP2K1, 0.1 μM
  inhibition at 0.1 µM: 17.2%
[12]; MAP2K1, 1 μM
  inhibition at 1 µM: -1.5%
[13]; MAP2K4, 0.1 μM
  inhibition at 0.1 µM: 2.3%
[13]; MAP2K4, 1 μM
  inhibition at 1 µM: 1.6%
[14]; MAP3K3, 0.1 μM
  inhibition at 0.1 µM: -3.4%
[14]; MAP3K3, 1 μM
  inhibition at 1 µM: -6.7%
[15]; MAST3, 0.1 μM
  inhibition at 0.1 µM: -11.7%
[15]; MAST3, 1 μM
  inhibition at 1 µM: 0.4%
[16]; MLK3, 0.1 μM
  inhibition at 0.1 µM: -13.5%
[16]; MLK3, 1 μM
  inhibition at 1 µM: -9.6%
[17]; MSK1 domain1, 0.1 μM
  inhibition at 0.1 µM: -12.1%
[17]; MSK1 domain1, 1 μM
  inhibition at 1 µM: -2.2%
[18]; 0.1 μM
  inhibition at 0.1 µM: 25.6%
[18]; 1 μM
  inhibition at 1 µM: 73.5%
[19]; 0.1 μM
  percent inhibition: 21.9%
[19]; 1 μM
  percent inhibition: 72.6%
[20]; 0.1 μM
  inhibition at 0.1 µM: 34.9%
[20]; 1 μM
  inhibition at 1 µM: 83.2%
[21]; 0.1 μM
  percent inhibition: 5.3%
[21]; 1 μM
  percent inhibition: 9.9%
[22]; NDR1, 0.1 μM
  inhibition at 0.1 µM: 16.3%
[22]; NDR1, 1 μM
  inhibition at 1 µM: -17.7%
[23]; NDR2, 0.1 μM
  inhibition at 0.1 µM: 28.9%
[23]; NDR2, 1 μM
  inhibition at 1 µM: -6%
[24]; 0.1 μM
  percent inhibition: −2.9%
[24]; 1 μM
  percent inhibition: 6.4%
[25]; NEK9, 0.1 μM
  inhibition at 0.1 µM: -11%
[25]; NEK9, 1 μM
  inhibition at 1 µM: 1.5%
[26]; OSR1, 0.1 μM
  inhibition at 0.1 µM: 5.2%
[26]; OSR1, 1 μM
  inhibition at 1 µM: -12.3%
[27]; p70S6K, 0.1 μM
  inhibition at 0.1 µM: 3.5%
[27]; p70S6K, 1 μM
  inhibition at 1 µM: -9.6%
[28]; 0.1 μM
  percent inhibition: −6.7%
[28]; 1 μM
  percent inhibition: 6.6%
[29]; RIPK3, 0.1 μM
  inhibition at 0.1 µM: -7.3%
[29]; RIPK3, 1 μM
  inhibition at 1 µM: -9.1%
[30]; RSK1 domain1, 0.1 μM
  inhibition at 0.1 µM: 27.6%
[30]; RSK1 domain1, 1 μM
  inhibition at 1 µM: 45.6%
[31]; RSK1 domain2, 0.1 μM
  inhibition at 0.1 µM: -3.4%
[31]; RSK1 domain2, 1 μM
  inhibition at 1 µM: 5%

## N#Cc1cccc(-c2c[nH]c3ncnc(N4CCOCC4)c23)c1 [Example 4, 3-[4-(Morpholin-4-yl)-7H-pyrrolo[2,3-d]pyrimidin-5-yl]benzonitrile]
[1]; 0.1 μM
  percent inhibition: −2.6%
[1]; 1 μM
  percent inhibition: 6.8%
[2]
  inhibition at 0.1 µM: -2.1%
  inhibition at 1 µM: 16.4%
[3]; 0.1 μM
  percent inhibition: −4.5%
[3]; 1 μM
  percent inhibition: 32.5%
[4]
  inhibition at 0.1 µM: -12.1%
  inhibition at 1 µM: 0.9%
[5]
  inhibition at 0.1 µM: -26.4%
  inhibition at 1 µM: 1.6%
[6]
  inhibition at 0.1 µM: -3.9%
  inhibition at 1 µM: 10.9%
[7]
  inhibition at 0.1 µM: -0.9%
  inhibition at 1 µM: 7.2%
[8]
  inhibition at 0.1 µM: -3.7%
  inhibition at 1 µM: 6.7%
[9]
  inhibition at 0.1 µM: -1.5%
  inhibition at 1 µM: 5.7%
[10]
  inhibition at 0.1 µM: -6.2%
  inhibition at 1 µM: 18.9%
[11]
  inhibition at 0.1 µM: 79.9%
[11]; 1 μM
  inhibition at 1 µM: 94.1%
[12]
  inhibition at 0.1 µM: -17.2%
  inhibition at 1 µM: 14%
[13]
  inhibition at 0.1 µM: -20.5%
  inhibition at 1 µM: 19.2%
[14]
  inhibition at 0.1 µM: -0.5%
  inhibition at 1 µM: 7.4%
[15]
  inhibition at 0.1 µM: 2.6%
  inhibition at 1 µM: 0.8%
[16]
  inhibition at 0.1 µM: -14.1%
  inhibition at 1 µM: 19.9%
[17]
  inhibition at 0.1 µM: 1%
  inhibition at 1 µM: -3.8%
[21]; 0.1 μM
  percent inhibition: 11.9%
[21]; 1 μM
  percent inhibition: 60.7%
[22]
  inhibition at 0.1 µM: -4.4%
  inhibition at 1 µM: 1.7%
[23]
  inhibition at 0.1 µM: -18.7%
  inhibition at 1 µM: 22.1%
[24]; 0.1 μM
  percent inhibition: −5.3%
[24]; 1 μM
  percent inhibition: −4.9%
[25]
  inhibition at 0.1 µM: -7.1%
  inhibition at 1 µM: 1%
[26]
  inhibition at 0.1 µM: -23.1%
  inhibition at 1 µM: -55.4%
[27]
  inhibition at 0.1 µM: -9%
  inhibition at 1 µM: 11.1%
[28]; 0.1 μM
  percent inhibition: −12.4%
[28]; 1 μM
  percent inhibition: 10.7%
[29]
  inhibition at 0.1 µM: -3.2%
  inhibition at 1 µM: 8%
[30]
  inhibition at 0.1 µM: -26.8%
  inhibition at 1 µM: 32.9%
[31]
  inhibition at 0.1 µM: 2.7%
  inhibition at 1 µM: 55.8%
